Calls of active or inactive are those of the source.
Columns and labels:
[1] = reduction of Shn3 3'UTR-driven luciferase in osteoblasts – cell-based, Clone20 osteoblasts, firefly luciferase, cherry-picked, dose response (AID 624132); assay type: functional;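 also: firefly luciferase luminescence from reporter carrying the Shn3 3'UTR in osteoblasts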
[2] = Shn3 3'UTR reporter signal decrease – cell-based, Clone20 osteoblasts, firefly luciferase, cherry-pick, set 2, Schnurri-3 inhibitor project, dose response (AID 720490); assay type: functional;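 also: actives lower the luminescence signal as inhibitors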
[3] = Late stage counterscreen for inhibitors of Trypanosoma brucei methionyl tRNA synthetase (MetRS): Luminescence-based cell-based high throughput dose response assay to identify compounds that are cytotoxic to Jurkat human T lymphocyte cells.; assay type: functional
[4] = IC50 of Artemis nuclease activity blockers – biochemical, fluorescence intensity, dose response (AID 720701); assay type: functional;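 also: Artemis endonuclease enzyme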
Kallikrein-7 = Kallikrein-7 (Homo sapiens, UniProt P49862); assay: Fluorescence Intensity-based biochemical primary high throughput dose response assay to identify activators of kallikrein-7 (K7) zymogen.
Chain of Kallikrein-7 (P49862 whole entry): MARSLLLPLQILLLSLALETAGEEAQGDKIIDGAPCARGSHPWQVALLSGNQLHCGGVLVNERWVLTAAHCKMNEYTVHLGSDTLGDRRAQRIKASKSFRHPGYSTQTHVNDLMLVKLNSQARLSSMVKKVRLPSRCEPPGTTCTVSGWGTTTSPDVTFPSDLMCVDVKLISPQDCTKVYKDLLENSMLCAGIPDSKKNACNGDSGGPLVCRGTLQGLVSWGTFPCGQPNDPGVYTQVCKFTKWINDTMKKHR

Hexokinase-1 = target: T1, Hexokinase-1 (Homo sapiens, UniProt P19367); assay: HK1 enzyme activation by HKDC1 hits – biochemical, selectivity assay for HKDC1 activator project, dose response (AID 504762); assay type: functional
T1 sequence (P19367 whole entry): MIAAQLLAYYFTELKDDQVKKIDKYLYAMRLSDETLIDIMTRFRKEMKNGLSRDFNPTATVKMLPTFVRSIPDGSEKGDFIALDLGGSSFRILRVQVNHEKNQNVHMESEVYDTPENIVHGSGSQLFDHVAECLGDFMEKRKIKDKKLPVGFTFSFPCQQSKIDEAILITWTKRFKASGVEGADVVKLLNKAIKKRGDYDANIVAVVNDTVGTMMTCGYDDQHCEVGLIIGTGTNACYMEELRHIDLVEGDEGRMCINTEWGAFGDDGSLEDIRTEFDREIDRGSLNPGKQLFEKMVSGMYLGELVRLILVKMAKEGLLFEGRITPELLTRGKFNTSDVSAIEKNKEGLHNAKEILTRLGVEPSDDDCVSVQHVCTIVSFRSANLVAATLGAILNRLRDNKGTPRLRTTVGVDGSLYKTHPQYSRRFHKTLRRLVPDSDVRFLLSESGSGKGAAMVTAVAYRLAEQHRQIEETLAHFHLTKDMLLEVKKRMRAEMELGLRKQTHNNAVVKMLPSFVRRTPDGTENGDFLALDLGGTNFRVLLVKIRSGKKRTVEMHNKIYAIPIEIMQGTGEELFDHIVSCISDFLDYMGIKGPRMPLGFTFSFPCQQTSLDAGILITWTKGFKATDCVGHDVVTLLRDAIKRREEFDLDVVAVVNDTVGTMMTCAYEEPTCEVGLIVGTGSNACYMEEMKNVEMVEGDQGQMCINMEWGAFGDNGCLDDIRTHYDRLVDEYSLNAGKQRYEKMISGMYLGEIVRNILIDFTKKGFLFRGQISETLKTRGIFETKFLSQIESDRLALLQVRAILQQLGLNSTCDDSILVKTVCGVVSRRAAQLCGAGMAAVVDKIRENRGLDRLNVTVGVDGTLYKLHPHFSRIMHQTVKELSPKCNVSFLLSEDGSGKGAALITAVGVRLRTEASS

[5] = target: 1-phosphatidylinositol 4,5-bisphosphate phosphodiesterase gamma-1 (Homo sapiens, UniProt P19174); assay: Counterscreen for inhibitors of phospholipase C isozymes (PLC-B3): Fluorescence-based biochemical high throughput dose response assay to identify inhibitors of phospholipase C isozymes (PLC-gamma1).
Chain of 1-phosphatidylinositol 4,5-bisphosphate phosphodiesterase gamma-1 (P19174 whole entry): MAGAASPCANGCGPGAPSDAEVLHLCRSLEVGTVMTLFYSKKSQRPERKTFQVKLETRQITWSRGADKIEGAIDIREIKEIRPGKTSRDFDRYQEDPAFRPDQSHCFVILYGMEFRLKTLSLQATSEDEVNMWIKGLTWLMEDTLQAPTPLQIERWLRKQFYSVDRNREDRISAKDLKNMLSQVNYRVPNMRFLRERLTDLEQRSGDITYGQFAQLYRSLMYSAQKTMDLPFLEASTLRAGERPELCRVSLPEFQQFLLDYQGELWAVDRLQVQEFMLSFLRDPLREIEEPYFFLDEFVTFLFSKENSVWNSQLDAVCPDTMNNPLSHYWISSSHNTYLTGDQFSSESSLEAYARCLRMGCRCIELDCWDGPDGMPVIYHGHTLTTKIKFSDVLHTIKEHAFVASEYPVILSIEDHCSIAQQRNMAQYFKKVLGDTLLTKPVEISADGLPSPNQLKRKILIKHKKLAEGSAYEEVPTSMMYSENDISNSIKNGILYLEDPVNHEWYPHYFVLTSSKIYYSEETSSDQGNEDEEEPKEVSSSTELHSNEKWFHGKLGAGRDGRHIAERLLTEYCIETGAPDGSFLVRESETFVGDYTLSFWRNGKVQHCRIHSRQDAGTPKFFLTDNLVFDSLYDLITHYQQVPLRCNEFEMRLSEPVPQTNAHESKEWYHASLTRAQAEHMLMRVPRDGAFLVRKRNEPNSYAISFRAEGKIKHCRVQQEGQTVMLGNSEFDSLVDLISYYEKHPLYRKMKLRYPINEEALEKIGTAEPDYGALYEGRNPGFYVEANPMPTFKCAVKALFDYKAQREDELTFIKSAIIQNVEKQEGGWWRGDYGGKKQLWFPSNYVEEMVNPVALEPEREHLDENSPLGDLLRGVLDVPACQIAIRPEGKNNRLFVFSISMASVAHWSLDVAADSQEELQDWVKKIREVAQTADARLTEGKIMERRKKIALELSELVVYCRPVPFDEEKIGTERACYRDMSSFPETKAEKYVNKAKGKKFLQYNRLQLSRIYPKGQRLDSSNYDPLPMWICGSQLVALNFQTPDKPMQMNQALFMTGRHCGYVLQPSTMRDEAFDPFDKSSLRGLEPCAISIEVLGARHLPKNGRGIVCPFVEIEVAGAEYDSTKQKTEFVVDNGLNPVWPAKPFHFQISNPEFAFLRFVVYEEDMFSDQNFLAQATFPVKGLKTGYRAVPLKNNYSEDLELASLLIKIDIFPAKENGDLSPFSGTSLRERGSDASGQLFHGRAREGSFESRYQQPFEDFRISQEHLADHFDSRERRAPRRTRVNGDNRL

[6] = target: T2, Histone-lysine N-methyltransferase NSD2 (Homo sapiens, UniProt O96028); assay type: biochemical
T2 sequence (O96028 whole entry): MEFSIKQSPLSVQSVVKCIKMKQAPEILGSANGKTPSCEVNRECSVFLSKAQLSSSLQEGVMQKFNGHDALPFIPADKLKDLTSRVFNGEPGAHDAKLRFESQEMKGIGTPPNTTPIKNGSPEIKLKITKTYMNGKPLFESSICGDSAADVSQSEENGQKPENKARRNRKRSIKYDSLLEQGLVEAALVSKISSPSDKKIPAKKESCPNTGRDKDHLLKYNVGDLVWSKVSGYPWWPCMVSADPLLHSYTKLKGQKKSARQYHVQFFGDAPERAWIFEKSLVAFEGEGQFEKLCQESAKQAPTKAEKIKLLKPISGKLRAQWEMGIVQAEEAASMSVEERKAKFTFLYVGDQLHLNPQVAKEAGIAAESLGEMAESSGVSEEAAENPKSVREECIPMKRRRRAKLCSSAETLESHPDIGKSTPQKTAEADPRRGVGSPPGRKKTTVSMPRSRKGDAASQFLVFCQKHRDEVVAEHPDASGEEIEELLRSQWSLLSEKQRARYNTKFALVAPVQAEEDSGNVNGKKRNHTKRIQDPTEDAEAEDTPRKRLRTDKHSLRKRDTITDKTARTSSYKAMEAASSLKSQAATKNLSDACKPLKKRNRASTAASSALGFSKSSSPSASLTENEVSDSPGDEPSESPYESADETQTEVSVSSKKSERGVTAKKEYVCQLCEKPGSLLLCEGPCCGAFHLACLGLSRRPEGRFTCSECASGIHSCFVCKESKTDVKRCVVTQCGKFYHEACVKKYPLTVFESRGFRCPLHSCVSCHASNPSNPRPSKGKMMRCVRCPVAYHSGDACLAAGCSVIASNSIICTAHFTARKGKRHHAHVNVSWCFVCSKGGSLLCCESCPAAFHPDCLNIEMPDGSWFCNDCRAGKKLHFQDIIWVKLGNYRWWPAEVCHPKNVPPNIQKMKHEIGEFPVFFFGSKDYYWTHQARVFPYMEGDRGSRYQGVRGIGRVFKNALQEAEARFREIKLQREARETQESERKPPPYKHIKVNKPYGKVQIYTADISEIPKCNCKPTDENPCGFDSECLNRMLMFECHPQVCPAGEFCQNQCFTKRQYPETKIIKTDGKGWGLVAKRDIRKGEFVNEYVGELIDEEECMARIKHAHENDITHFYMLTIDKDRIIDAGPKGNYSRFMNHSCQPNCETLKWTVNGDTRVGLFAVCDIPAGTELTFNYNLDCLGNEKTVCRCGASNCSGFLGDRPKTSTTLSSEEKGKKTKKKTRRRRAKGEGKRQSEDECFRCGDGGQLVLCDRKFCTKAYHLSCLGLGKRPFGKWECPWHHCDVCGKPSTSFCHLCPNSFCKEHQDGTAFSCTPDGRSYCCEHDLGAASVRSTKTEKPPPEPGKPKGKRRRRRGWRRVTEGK

[7] = target: Tyrosyl-DNA phosphodiesterase 2 (Homo sapiens, UniProt O95551); assay: potency against TDP2 phosphodiesterase activity – biochemical, epi absorbance, IC50, dose response (AID 743297)
Chain of Tyrosyl-DNA phosphodiesterase 2 (O95551 whole entry): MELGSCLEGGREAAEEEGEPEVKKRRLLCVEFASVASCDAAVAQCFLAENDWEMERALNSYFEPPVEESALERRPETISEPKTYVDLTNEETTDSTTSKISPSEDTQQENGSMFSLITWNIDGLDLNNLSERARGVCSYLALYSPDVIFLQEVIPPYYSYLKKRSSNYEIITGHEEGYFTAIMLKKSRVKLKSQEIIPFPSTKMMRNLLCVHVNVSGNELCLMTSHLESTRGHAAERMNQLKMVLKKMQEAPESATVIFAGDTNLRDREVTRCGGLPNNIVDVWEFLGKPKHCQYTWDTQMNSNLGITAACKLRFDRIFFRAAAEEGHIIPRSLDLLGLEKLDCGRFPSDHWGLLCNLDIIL

Paired box protein Pax-8 = Paired box protein Pax-8 (Homo sapiens, UniProt Q06710); assay: PAX8 transcriptional activity inhibition in RMG-I – RMG-I cells, luciferase, cherry-pick, dose response (AID 687027); assay type: functional, cell-based;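 also: luciferase reporter driven by Pax8 target thyroperoxidase promoter measured by SteadyGlo luminescence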
Chain of Paired box protein Pax-8 (Q06710 whole entry): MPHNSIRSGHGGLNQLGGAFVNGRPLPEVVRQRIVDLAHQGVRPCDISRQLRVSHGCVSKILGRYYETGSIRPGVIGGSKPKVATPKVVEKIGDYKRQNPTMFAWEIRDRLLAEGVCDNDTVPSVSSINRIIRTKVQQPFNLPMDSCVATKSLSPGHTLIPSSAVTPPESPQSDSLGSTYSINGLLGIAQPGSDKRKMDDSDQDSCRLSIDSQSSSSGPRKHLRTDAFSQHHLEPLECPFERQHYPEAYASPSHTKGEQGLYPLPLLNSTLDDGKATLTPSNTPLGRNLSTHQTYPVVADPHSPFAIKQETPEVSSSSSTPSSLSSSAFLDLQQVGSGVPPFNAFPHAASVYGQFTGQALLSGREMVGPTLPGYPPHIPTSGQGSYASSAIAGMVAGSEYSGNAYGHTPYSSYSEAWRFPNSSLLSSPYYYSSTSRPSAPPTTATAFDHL

[8] = target: 1-phosphatidylinositol 4,5-bisphosphate phosphodiesterase beta-3 (Homo sapiens, UniProt Q01970); assay: Fluorescence-based biochemical high throughput dose response assay to identify inhibitors of phospholipase C isozymes (PLC-B3).
Chain of 1-phosphatidylinositol 4,5-bisphosphate phosphodiesterase beta-3 (Q01970 whole entry): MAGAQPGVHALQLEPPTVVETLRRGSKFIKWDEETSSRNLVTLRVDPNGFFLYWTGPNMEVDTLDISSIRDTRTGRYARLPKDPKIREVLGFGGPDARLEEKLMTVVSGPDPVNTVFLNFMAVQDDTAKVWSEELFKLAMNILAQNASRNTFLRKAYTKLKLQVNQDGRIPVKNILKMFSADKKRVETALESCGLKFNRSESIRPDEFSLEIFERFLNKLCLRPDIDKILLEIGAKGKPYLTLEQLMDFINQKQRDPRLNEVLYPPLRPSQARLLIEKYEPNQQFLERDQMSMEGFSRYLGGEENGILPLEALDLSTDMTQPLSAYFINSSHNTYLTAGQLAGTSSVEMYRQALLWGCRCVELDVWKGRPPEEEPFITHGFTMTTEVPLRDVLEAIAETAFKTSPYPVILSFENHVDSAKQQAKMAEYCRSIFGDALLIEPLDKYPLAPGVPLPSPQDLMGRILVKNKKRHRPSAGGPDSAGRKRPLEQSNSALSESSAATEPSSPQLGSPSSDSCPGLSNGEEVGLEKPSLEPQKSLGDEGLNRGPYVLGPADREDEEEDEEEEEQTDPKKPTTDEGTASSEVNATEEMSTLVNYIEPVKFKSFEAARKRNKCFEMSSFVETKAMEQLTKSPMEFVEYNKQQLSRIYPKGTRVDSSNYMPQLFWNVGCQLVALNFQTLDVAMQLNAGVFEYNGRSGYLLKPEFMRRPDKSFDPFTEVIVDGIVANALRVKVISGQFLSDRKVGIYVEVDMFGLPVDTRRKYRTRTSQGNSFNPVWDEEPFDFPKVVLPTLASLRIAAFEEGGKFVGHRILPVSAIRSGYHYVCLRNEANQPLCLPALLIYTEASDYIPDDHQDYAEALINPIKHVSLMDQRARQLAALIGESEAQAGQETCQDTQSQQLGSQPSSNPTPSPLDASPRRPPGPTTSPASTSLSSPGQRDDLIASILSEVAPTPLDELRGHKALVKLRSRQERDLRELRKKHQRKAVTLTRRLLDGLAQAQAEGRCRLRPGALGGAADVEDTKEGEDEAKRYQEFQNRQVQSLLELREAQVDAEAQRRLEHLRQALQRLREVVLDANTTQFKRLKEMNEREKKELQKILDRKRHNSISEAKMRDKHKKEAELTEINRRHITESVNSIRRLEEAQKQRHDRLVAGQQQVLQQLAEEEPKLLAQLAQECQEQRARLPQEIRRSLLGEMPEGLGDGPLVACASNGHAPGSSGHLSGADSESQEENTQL

[9] = general cell-killing toxicity readout – plate reader, dry powder samples, cytotoxicity control for PAX8 inhibitor project, dose response (AID 743021); assay type: functional, cell-based
Hexokinase HKDC1 = target: T3, Hexokinase HKDC1 (Homo sapiens, UniProt Q2TB90); assay: activation of HKDC1 glucose phosphorylation – biochemical, W721R variant, dose response (AID 504730); assay type: functional
T3 sequence (Q2TB90 whole entry): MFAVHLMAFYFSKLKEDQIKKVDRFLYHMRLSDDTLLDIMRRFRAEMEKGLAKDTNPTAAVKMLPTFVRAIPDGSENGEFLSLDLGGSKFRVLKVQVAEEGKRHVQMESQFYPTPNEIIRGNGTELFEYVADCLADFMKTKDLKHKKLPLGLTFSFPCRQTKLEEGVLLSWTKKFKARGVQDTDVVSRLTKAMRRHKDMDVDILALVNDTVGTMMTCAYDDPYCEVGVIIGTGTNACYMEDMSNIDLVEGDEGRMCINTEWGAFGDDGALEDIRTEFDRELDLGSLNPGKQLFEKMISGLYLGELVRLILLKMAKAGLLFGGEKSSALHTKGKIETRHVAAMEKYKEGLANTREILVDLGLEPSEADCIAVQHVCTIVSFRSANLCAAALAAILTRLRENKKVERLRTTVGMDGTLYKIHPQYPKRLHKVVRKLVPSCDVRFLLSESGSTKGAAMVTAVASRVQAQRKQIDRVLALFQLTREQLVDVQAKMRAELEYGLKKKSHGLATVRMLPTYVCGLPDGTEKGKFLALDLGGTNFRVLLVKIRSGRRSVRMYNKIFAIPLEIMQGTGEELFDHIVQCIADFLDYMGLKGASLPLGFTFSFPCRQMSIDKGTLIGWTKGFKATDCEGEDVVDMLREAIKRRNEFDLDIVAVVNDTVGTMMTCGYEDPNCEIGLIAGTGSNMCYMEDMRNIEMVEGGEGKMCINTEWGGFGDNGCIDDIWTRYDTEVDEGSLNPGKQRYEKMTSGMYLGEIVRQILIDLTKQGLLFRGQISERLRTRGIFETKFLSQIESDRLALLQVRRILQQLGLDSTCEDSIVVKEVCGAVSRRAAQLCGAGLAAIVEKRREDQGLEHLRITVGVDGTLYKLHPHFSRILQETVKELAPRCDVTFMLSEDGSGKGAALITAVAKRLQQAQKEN

[10] = target: T4, NAD-dependent protein deacylase sirtuin-5, mitochondrial (Homo sapiens, UniProt Q9NXA8); assay: blockers of sirtuin-5 peptide desuccinylation – biochemical, fluorescence imaging, cherry-pick, set 6, dose response (AID 720597)
T4 sequence (Q9NXA8 whole entry): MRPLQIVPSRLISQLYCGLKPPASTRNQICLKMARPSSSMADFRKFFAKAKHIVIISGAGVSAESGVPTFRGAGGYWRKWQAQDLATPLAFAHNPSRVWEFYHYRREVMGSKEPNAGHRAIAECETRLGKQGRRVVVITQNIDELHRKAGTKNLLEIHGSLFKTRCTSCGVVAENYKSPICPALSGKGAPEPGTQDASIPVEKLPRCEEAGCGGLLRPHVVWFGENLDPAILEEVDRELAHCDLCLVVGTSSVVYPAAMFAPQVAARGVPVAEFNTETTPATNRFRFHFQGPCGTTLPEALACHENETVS

[11] = reduced cellular PGC1a acetyl-lysine signal – cell-based, cherry-picked samples, dose response (AID 720514); assay type: functional;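 also: potency may reflect raised or lowered acetylation signal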
[12] = viability loss in MITF-independent A375 cells – cell-based, CellTiter-Glo luminescence, dry powder, set 2, counter-screen for MITF inhibitor project, dose response (AID 624489); assay type: functional; settings: A-375;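 also: actives are compounds lowering A375 viability meaning general cytotoxicity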
[13] = cytotoxicity in MITF-independent A375 cells – cell-based, CellTiter-Glo luminescence, dry powder, set 4, counter-screen for MITF inhibitor project, dose response (AID 624364); assay type: functional; settings: A-375;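 also: A375 melanoma cells are MITF independent so this is a counter screen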
[14] = Trypanosoma cruzi replication inhibitors in host cells – cell-based, plate reader, dry powder samples, dose response (AID 651845); assay type: functional
[15] = T. cruzi growth inhibition in host cells, dose response, cell-based, plate reader, dry powder, set 2 (AID 652275); assay type: functional
[16] = anti-trypanosomal activity in BESM host cells – imaging, CA-I/72 strain, bovine embryo skeletal muscle, dry powder, dose response (AID 651885); assay type: functional, cell-based
Vasopressin V1b receptor = Vasopressin V1b receptor (Homo sapiens, UniProt P47901); assay: Late-stage results from the probe development effort to identify antagonists of arginine vasopressin receptor 1a (AVPR1a): fluorescence-based cell-based dose response AVPR1b inhibition counterscreen assay.; assay type: functional
Chain of Vasopressin V1b receptor (P47901 whole entry): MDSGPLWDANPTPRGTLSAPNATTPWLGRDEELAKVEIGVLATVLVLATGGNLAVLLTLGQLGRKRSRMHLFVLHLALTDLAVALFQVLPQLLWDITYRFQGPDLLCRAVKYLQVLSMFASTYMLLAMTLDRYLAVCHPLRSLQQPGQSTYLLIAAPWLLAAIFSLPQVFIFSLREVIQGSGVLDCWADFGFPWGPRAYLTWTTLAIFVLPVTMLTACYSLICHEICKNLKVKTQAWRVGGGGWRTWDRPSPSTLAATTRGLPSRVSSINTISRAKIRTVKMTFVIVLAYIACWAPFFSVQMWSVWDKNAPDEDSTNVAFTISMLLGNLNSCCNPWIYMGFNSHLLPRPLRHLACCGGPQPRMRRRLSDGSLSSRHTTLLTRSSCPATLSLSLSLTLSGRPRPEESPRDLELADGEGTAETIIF

[17] = Late-stage results from the probe development effort to identify antagonists of arginine vasopressin receptor 1a (AVPR1a): fluorescence-based cell-based dose response OXTR inhibition counterscreen assay.; assay type: functional
Vasopressin V2 receptor = Vasopressin V2 receptor (Homo sapiens, UniProt P30518); assay: Late-stage results from the probe development effort to identify antagonists of arginine vasopressin receptor 1a (AVPR1a): fluorescence-based cell-based dose response AVPR2 inhibition counterscreen assay.; assay type: functional
Chain of Vasopressin V2 receptor (P30518 whole entry): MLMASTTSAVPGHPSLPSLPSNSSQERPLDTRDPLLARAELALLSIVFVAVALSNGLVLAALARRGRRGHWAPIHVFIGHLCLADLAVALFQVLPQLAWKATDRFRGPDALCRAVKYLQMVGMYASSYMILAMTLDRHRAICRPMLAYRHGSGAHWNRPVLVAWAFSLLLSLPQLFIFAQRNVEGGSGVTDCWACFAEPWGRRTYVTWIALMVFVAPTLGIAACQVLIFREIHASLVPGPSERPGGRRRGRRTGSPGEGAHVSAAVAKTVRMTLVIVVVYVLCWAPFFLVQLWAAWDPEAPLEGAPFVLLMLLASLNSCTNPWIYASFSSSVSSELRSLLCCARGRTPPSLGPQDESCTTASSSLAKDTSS

[18] = Late-stage results from the probe development effort to identify antagonists of arginine vasopressin receptor 1a (AVPR1a): fluorescence-based cell-based dose response AVPR1a inhibition assay.; assay type: functional
[19] = target: T4, NAD-dependent protein deacylase sirtuin-5, mitochondrial; assay: sirtuin-5 deacylation blockers, concentration series – biochemical, fluorescence imaging, cherry-pick, set 5, dose response (AID 720591);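 also: desuccinylation of succinyl peptide AMC substrate read as fluorescence after trypsin release; potency of inhibitors that lower fluorescence and may act on trypsin instead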
[20] = liver cell line viability loss – HepG2, luminescence plate reader, powder samples, set 2, cytotoxicity control, dose response (AID 651860); assay type: functional, cell-based

CC(Oc1ccc(F)cc1)C(=O)N(CCC1=CCCCC1)c1c(N)n(Cc2ccccc2)c(=O)[nH]c1=O (stereo unspecified)
AC50 [1]: 7.99 µM (active) | AC50 [2]: 22.6 µM (active)

CC(CC(=O)Nc1cccc(Br)c1)=NNC(=O)c1ccc(O)cc1O
IC50 [3]: > 83.3 µM (inactive)

Cc1ccc(CNC(=O)c2cc3c(=O)n4ccccc4nc3n(Cc3ccco3)c2=N)cc1
IC50 [4]: 17.3 µM (active)

CC(=O)Nc1ccc2[nH]c(-c3cccs3)nc2c1
EC50 (Kallikrein-7): 8.78 µM (active)

NC1=C(Cl)C(=O)c2ccc(S(N)(=O)=O)cc2C1=O
EC50 (Hexokinase-1): 1.06 µM (active) | IC50 [5]: > 122 µM (inactive) | AC50 [6]: 0.144 µM (active) | IC50 [7]: 1.07 µM (active) | AC50 (Paired box protein Pax-8): 1.47 µM (active) | IC50 [8]: > 122 µM (inactive) | AC50 [9]: 8.31 µM (active) | EC50 (Hexokinase HKDC1): > 80 µM (inactive)

C[C@@H]1CN([C@H](C)CO)C(=O)CCCn2nncc2CO[C@H]1CN(C)S(=O)(=O)c1ccc(Cl)cc1
AC50 [10]: 26.7 µM (active)

CC(C)NC(=O)Nc1ccc2c(c1)C(=O)N([C@@H](C)CO)C[C@H](C)[C@@H](CN(C)C(=O)CCC(F)(F)F)OCCCC[C@@H](C)O2
AC50 [11]: 38 µM (active)

O=C1C(NS(=O)(=O)c2cccs2)=C(N2CCCCC2)C(=O)c2ccccc21
AC50 [12]: > 70 µM (inactive) | AC50 [13]: > 70 µM (inactive)

CC(C)N(C)C(=O)c1cccc(NC(=O)c2ccncc2)c1OCCCN(C)Cc1ccc(Oc2ccccc2)cc1
AC50 [14]: 0.386 µM (active) | AC50 [15]: 0.381 µM (active) | IC50 [16]: 10.1 µM (inconclusive)

Cc1ccc(N(CC2CC2)C(=O)N2CCN(c3ccccc3C)CC2)cc1
IC50 (Vasopressin V1b receptor): 17.6 µM (inactive) | IC50 [17]: 0.082 µM (active) | IC50 (Vasopressin V2 receptor): 2.22 µM (active) | IC50 [18]: 0.0069 µM (active)

COc1ccc(CN2C(=O)C(CC(=O)NCCc3ccccn3)CC(C(=O)N3CCOCC3)=C2C)cc1 (stereo unspecified)
AC50 [19]: > 30 µM (inactive)

NC(=O)[C@H]1CCCC[C@H]1C(=O)N1CCc2ccccc2[C@H]1CN1C(=O)c2ccccc2C1=O
AC50 [20]: > 52 µM (inactive)
